Results on two compounds are retold here after article PMC8715118, “Assessing potentiation of the (α4)3(β2)2 nicotinic acetylcholine receptor by the allosteric agonist CMPI” (The Journal of Biological Chemistry, 2021).

Read-outs that look alike come from different tables or passages of the source.

Assay [1] deals with T1, (α4H116A)3(β2)2 nAChR (Homo sapiens, UniProt P17787+P43681, H142A).
T1 construct: expressed in transfected cells; host or cells: Xenopus laevis oocytes injected with cRNA, 8:1 α4:β2
Nature of the assay: Two-electrode voltage-clamp, oocytes expressing (α4H116A)3(β2)2 nAChR. Type of assay: cell-based. Here is the method:
(§1) Oocytes-positive female Xenopus laevis were purchased from NASCO, and all procedures were performed according to an animal use protocol approved by the Institutional Animals Care and Use Committee of The University of Texas Health Science Center at Tyler. Ovarian lobules were surgically harvested, treated with collagenase type 2, and Stage V and VI oocytes were visually selected and maintained at 18 °C in modified ND96-gentamicin buffer (96 mM NaCl, 2 mM KCl, 1.8 mM CaCl2, 1 mM MgCl2, 5 mM Hepes, and 50 μg/ml gentamicin, pH 7.6).
(§2) pSP64 Poly(A) plasmids with cDNA encoding for human α4 or β2 nAChR subunit were used to prepare cRNA transcripts suitable for oocyte expression. The plasmids were linearized with AseI (hα4) and PvuII (hβ2), then cRNA transcripts were prepared in vitro using mMESSAGE mMACHINE high yield-capped RNA transcription kits (Ambion, Thermo Fisher Scientific), purified on NucAway Spin column (Invitrogen, Thermo Fisher Scientific), and stored at −80 °C until used. Point mutations within the plasmid encoding the α4 nAChR subunit were introduced using QuikChange II Site-Directed Mutagenesis Kit (Agilent Technologies), as described previously ([28]). To generate amino acid substitutions (K64T, E66I, H116V, H116L, and H116A), two custom-designed complementary oligos containing the desired mutation were used (Integrated DNA Technologies). The forward primers were as the following with the codon for mutated amino acids are underlined and nucleotide(s) changes are bolded and italicized:
(§3) The oocytes were injected with 10 to 50 ng of a cRNA mix containing α4 (WT or mutant) and β2 RNAs at ratios of 8:1(α4:β) or 1:8 (α4:β2) to bias expression toward (α4)3(β2)2 or (α4)2(β2)3 nAChRs, respectively. The injection of oocytes with RNAs mixture containing four folds or higher α4 RNA than β2 RNA have been established to express receptor population that is made up of three α4 and two β2 subunits ([9], [12], [28], [43], [44], [45]).
(§4) 24 to 72 h after cRNA injection, Xenopus oocytes were placed in a custom-made recording chamber that is connected to an eight-channel automated perfusion system (Warner Instruments) and perfused with recording buffer (100 mM NaCl, 2 mM KCl, 1 mM CaCl2, 0.8 mM MgCl2, 1 mM EGTA, and 10 mM Hepes, pH 7.5). Unless otherwise specified in figure legends, each recording run included several drug applications (10 s of an agonist with or without CMPI or NS9283) separated by 3 to 4 min buffer wash intervals. Between recording runs, the oocytes were washed with recording buffer for at last 5 min. The oocytes were voltage-clamped at −50 mV using Oocyte Clamp OC-725B (Warner Instruments). The currents were digitized using Digidata 1550A (Axon Instruments, Molecular Devices), and the peak currents were quantified using pCLAMP 10 (Axon Instruments), then normalized and analyzed using Excel 2010 (Microsoft) and SigmaPlot 11.0 (Systat Software). For NS9283 and CMPI potentiation of agonist-induced responses, the peak currents were normalized to current elicited by agonist alone applied within the same recording run. For the effect of coapplication of 1 μM NS9283 or CMPI on agonist concentration-response curve, the peak currents were normalized to current elicited by saturating concentration of agonist applied within the same recording run. […] I0 = 100 for NS9283 and CMPI potentiation of agonist-induced responses and I0 = 0 for agonist concentration-response experiments. The best-fit values for Imax and EC50 ± SD are presented.

In assay [2] the target is T2, (α4)3(β2)2 nAChR (Homo sapiens, UniProt P17787+P43681).
T2 construct: expressed in transfected cells; host or cells: Xenopus laevis oocytes injected with cRNA, 8:1 α4:β2
In words: Mechanistic (Monod-Wyman-Changeux two-state model) analysis of current responses, WT (α4)3(β2)2 nAChR. Type of assay: cell-based. Particulars: α4:β2 site, WT. From the text:
To gain mechanistic insight into receptor activation in the presence of CMPI, we analyzed the currents in the framework of a cyclic two-state (resting and active) allosteric activation model ([31], [32], [33]). In this model, channel opening is mediated by stabilization of the active state by an agonist that, by definition, has higher affinity to the active than resting state.
We commenced by converting the raw amplitudes of current responses to units of probability of being in the active state (PA units).
(§5) Further analysis of electrophysiological data was conducted in the framework of the two-state concerted transition model, adapted from the MWC cyclic model originally used to describe enzyme function ([31], [32], [33]). The raw peak amplitudes of current responses were converted to units of probability of being in the active state (PA).
(§6) The numbers of α4:β2 and α4:α4 binding sites (Nα4:β2 and Nα4:α4) were constrained to 2 and 1, respectively.
(§7) The concentration-response curve for TC-2559 was fitted to the following equation:(3) PA=1/1+L[1+[TC-2559]/KR,TC-2559,α4:β2/1+[TC-2559]/(KR,TC-2559,α4:β2cTC-2559,α4:β2)]^Nα4:β2
(§8) The concentration-response data were analyzed using Equation 3, with the value of L modified to reflect receptor activation by TC-2559, and the affinity and efficacy terms in the equation reflecting the values for CMPI. The number of binding sites for CMPI in Equation 3 was constrained to 1.
(§9) Curve fitting was done using Origin 2020 (OriginLab Corp). The results are reported as best-fit parameter ±SD of the fit. All data are included in the analysis.

Assay [3] has as its target T1, (α4H116A)3(β2)2 nAChR. Nature of the assay: Mechanistic (Monod-Wyman-Changeux two-state model) analysis of current responses, (α4H116A)3(β2)2 nAChR. Type of assay: cell-based. Particulars: α4H116A mutant; for Kd: read-out: KR, equilibrium dissociation constant in the resting receptor. Here is the method: as §5, §6, §7, §8, §9
Assay [4] addresses T2, (α4)3(β2)2 nAChR. In words: Two-electrode voltage-clamp whole-cell currents, Xenopus oocytes expressing WT (α4)3(β2)2 nAChR. Type of assay: cell-based. As to the method: as §1, §2, §3, §4
For orientation: In two-electrode clamp one electrode senses voltage and the other passes current.

The next assay addresses T3, (α4)2(β2)3 nAChR (Homo sapiens, UniProt P17787+P43681).
T3 construct: expressed in transfected cells; host or cells: Xenopus laevis oocytes injected with cRNA, 1:8 α4:β2
Nature of the assay: Two-electrode voltage-clamp whole-cell currents, Xenopus oocytes expressing (α4)2(β2)3 nAChR. Type of assay: cell-based. Here is the method:
as §1
pSP64 Poly(A) plasmids with cDNA encoding for human α4 or β2 nAChR subunit were used to prepare cRNA transcripts suitable for oocyte expression. The plasmids were linearized with AseI (hα4) and PvuII (hβ2), then cRNA transcripts were prepared in vitro using mMESSAGE mMACHINE high yield-capped RNA transcription kits (Ambion, Thermo Fisher Scientific), purified on NucAway Spin column (Invitrogen, Thermo Fisher Scientific), and stored at −80 °C until used. […]
Two-electrode voltage-clamp recordings of ACh- or TC-2559 induced responses of Xenopus oocytes were performed, as described in ([28]). […] The currents were digitized using Digidata 1550A (Axon Instruments, Molecular Devices), and the peak currents were quantified using pCLAMP 10 (Axon Instruments), then normalized and analyzed using Excel 2010 (Microsoft) and SigmaPlot 11.0 (Systat Software). […]

A further assay concerns nAChR. Further details: method as in PMID 1378342. Conditions: nonselective, allosteric antagonist; cited from earlier work.

The term Emax denotes the maximal effect, on the per cent scale that the assay sets. What is called EC50 is the concentration at which the effect is half-maximal.

T1 sequence (P43681 27-627 H142A): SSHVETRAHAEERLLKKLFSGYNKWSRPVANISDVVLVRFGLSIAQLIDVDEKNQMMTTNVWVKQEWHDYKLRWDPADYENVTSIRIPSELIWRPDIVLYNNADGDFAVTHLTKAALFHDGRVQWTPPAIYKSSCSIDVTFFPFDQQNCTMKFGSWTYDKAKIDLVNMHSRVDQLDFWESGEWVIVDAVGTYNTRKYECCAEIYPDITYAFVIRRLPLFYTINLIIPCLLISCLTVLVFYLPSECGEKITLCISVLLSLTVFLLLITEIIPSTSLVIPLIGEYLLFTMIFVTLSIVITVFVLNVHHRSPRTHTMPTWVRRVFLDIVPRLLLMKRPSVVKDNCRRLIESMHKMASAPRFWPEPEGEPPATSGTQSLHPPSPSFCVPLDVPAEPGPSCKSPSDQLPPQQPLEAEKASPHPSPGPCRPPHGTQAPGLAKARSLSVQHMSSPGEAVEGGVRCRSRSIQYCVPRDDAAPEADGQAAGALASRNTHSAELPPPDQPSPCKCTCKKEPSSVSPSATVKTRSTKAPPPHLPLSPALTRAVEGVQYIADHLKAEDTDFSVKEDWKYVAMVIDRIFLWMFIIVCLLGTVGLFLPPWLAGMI
T1 sequence (P17787 26-502): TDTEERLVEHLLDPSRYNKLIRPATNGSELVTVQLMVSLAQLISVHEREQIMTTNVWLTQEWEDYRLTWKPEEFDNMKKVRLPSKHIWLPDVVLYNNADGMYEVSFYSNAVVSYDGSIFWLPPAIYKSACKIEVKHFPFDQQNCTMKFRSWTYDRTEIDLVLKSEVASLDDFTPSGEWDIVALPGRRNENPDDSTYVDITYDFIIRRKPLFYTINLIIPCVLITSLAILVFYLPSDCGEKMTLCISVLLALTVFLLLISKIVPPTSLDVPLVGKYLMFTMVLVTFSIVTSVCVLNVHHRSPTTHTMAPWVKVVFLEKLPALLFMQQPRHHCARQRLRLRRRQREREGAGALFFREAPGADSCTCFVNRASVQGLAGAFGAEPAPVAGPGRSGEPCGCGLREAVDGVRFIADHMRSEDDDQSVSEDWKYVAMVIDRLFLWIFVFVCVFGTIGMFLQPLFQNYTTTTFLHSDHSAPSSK
T2 sequence (P43681 27-627): as the sequence (P43681 27-627 H142A) above, with A116H counted along it
T2 sequence (P17787 26-502): as the sequence (P17787 26-502) above
T3 sequence (P43681 27-627): as the sequence (P43681 27-627 H142A) above, with A116H counted along it
T3 sequence (P17787 26-502): as the sequence (P17787 26-502) above

For `CCOc1cncc(/C=C/CCNC)c1` [TC-2559], the entries for the “Emax, % of current induced by 1 mM ACh” value on (α4H116A)3(β2)2 nAChR [1] and at (α4)3(β2)2 nAChR [4] (WT) were 182 ± 5% and around 10%, respectively. Also, the Emax at (α4H116A)3(β2)2 nAChR [1] (absence of CMPI, normalized to 100 μM TC-2559) is 115 ± 14%. For the same compound, the concentration for a half-maximal effect (EC50) at (α4H116A)3(β2)2 nAChR [1] (absence of CMPI, read-out: EC50 of TC-2559) was found to be 22000 ± 7000 nM; at (α4)3(β2)2 nAChR [4] (agonist alone, read-out: agonist EC50), 340 ± 40 nM; on (α4)2(β2)3 nAChR (agonist alone) it was 540 ± 20 nM. For the same compound, the “c, ratio of equilibrium dissociation constants active/resting receptor” value is 0.371 ± 0.006 on (α4)3(β2)2 nAChR [2], 0.046 ± 0.003 on (α4H116A)3(β2)2 nAChR [3] (α4:α4 site) and 0.337 ± 0.013 on (α4H116A)3(β2)2 nAChR [3] (α4:β2 site). For the same compound, the Kd on (α4)3(β2)2 nAChR [2] (read-out: KR, equilibrium dissociation constant in the resting receptor) amounted to 330 ± 50 nM; on (α4H116A)3(β2)2 nAChR [3] (α4:α4 site), 70000 ± 3000 nM; on (α4H116A)3(β2)2 nAChR [3] (α4:β2 site), 210 ± 50 nM. Moreover, the entries for the “I30 μM TC-2559, % of current induced by 1 mM ACh” value on (α4)3(β2)2 nAChR [4] (30 μM TC-2559) and on (α4)2(β2)3 nAChR (30 μM TC-2559) were 11 ± 2% and 152 ± 21%, respectively.
Consider `CNC1(C)C2CCC(C2)C1(C)C` (stereo not shown) [mecamylamine], for which, on (α4)3(β2)2 nAChR [4] (100 μM mecamylamine, holding current), the “outward current, mean amplitude, % of the absolute response to 1 mM ACh” value is listed as 2.1 ± 0.5%. Besides, the IC50s entry in the assay with nAChR is given as “submicromolar range”.
